In general, IC50 refers to the concentration that inhibits the measured activity by half.

“And” between values parts separate entries of the source, which are not always exact repeats. Equal values may be shown once. The source made the active and inactive calls. No rule for the calls is given here. *1 amine or outer side, *2 acyl side, *3 side chain or, on linkers, in order; H or OH if unused. Where a SMILES comes first, the peptide text is derived from it. Bridges are numbered along the chain shown (N, C = ends). Roman numbers before positions name the chains, in order. [ ]: non-standard residue; d: D form. Actinocin(9to1) = Cc1c2oc3c(C)ccc(C(=O)[*:1])c3nc-2c(C(=O)[*:2])c(N)c1=O; NMeV = CN[C@H](C(=O)O)C(C)C; Sar = CNCC(=O)O Bounds are passed on as bounds.

This experiment concerns ADSC/ECFC co-culture, VEGF-stimulated, CD31 tube area. The experiment is described as follows: inhibition of endothelial tube formation, dose response, imaging, VEGF stimulation, CD31 staining, tube area, IC50 (AID 1117337).
`CCCCCCCCCCC[C@@H](C[C@@H]1OC(=O)[C@H]1CCCCCC)OC(=O)[C@H](CC(C)C)NC=O`: the IC50 was > 10 µM (inactive).

With `CN(C)CCOC1=Cc2ccccc2Sc2ccc(Cl)cc21`, the IC50 is > 10 µM (inactive).

As to `Nc1ncn([C@@H]2O[C@H](CO)[C@@H](O)[C@H]2O)c(=O)n1`, the IC50 is > 10 µM (inactive).

Turning to `CC(=O)N(O)CCCCCNC(=O)CCC(=O)N(O)CCCCCNC(=O)CCC(=O)N(O)CCCCCN`, the IC50 is 4.53 µM.

Take `O=C(Nc1ccc(S(=O)(=O)N2CCOCC2)cc1)c1cc(Cl)ccc1NS(=O)(=O)c1ccc(Cl)s1`: the IC50 was > 10 µM (inactive).

Take `Cc1cccc(C)c1NC(=O)CC12CCCN1CCC2`: the IC50 is > 10 µM (inactive).

Turning to `COc1c(C)c2c(c(O)c1C/C=C(\C)CCC(=O)OCCN1CCOCC1)C(=O)OC2`, the IC50 was 1.26 µM.

Regarding `O=C1C(I)=CC(=C(c2cc(I)c(O)c(I)c2)c2ccccc2C(=O)O)C=C1I`, the IC50 was > 10 µM (inactive).

As for `O=[N+]([O-])c1cccc(S(=O)(=O)NCCNS(=O)(=O)c2cccc([N+](=O)[O-])c2)c1`, the IC50 is > 10 µM (inactive).

For `Cc1c(C)c2c(c(C)c1O)CCC(C)(COc1ccc(CC3SC(=O)NC3=O)cc1)O2` (stereo not drawn), the IC50 was 5.14 µM (inactive).

Regarding `CCCCCCCCCCCCCCCC[N+](C)(C)CC`, the half-inhibitory concentration (IC50) was 1.14 µM.

For `CN(C)C(=O)Oc1cccc([N+](C)(C)C)c1`, the IC50 was > 10 µM (inactive).

Consider `CCCCCCCCOC(=O)c1ccccc1C(=O)OCCCCCCCC`, for which the IC50 is > 10 µM (inactive).

In the case of `C/C=C(/C(=C/C)c1ccc(OC(C)=O)cc1)c1ccc(OC(C)=O)cc1`, the IC50 was > 10 µM (inactive).

Turning to `CC(=O)Nc1ccn(C2COC(COC(=O)c3ccccc3)O2)c(=O)n1` (stereo not drawn), the IC50 is 2.33 µM.

`O=c1[nH]c(=O)n([C@H]2C[C@H](O)[C@@H](CO)O2)cc1F`: the IC50 was 0.0216 µM.

Turning to `CC[C@]1(O)C[C@@H]2CN(CCc3c([nH]c4ccccc34)[C@@](C(=O)OC)(c3cc4c(cc3OC)N(C)[C@H]3[C@@](O)(C(=O)OC)[C@H](OC(C)=O)[C@]5(CC)C=CCN6CC[C@]43[C@@H]65)C2)C1`, the IC50 was 0.0026 µM and 0.0023 µM.

`NC(=O)C1(N2CCCCC2)CCN(CCCN2c3ccccc3CCc3ccc(Cl)cc32)CC1`: the IC50 is 3.4 µM.

For the compound `CCCCCCCCCCCCCCNCCO`, the IC50 was > 10 µM (inactive).

For `C[C@@H](NCCCc1cccc(C(F)(F)F)c1)c1cccc2ccccc12`, the IC50 is > 10 µM (inactive).

As for `CN(C)c1ccc(C(=C2C=CC(=[N+](C)C)C=C2)c2ccc(N(C)C)cc2)cc1`, the IC50 was 0.186 µM.

For `CN1CCC[C@@H]1CCO[C@](C)(c1ccccc1)c1ccc(Cl)cc1`, the IC50 is > 10 µM (inactive).

For the compound `O=c1c(-c2ccc(O)cc2)coc2cc(O)cc(O)c12`, the IC50 was > 10 µM (inactive).

On to `CN(Cc1cnc2nc(N)nc(N)c2n1)c1ccc(C(=O)N[C@@H](CCC(=O)O)C(=O)O)cc1`, for which the IC50 is > 10 µM (inactive).

Consider `COC(=O)N[C@H](C(=O)N[C@@H](Cc1ccccc1)[C@@H](O)CN(Cc1ccc(-c2ccccn2)cc1)NC(=O)[C@@H](NC(=O)OC)C(C)(C)C)C(C)(C)C`, for which the IC50 was > 10 µM (inactive).

On to `Cc1[nH]cnc1C[C@H]1CCc2c(C)c3ccccc3n2C1=O`, for which the IC50 is > 10 µM (inactive).

In the case of `CC(=O)Oc1ccc(C2(c3ccc(OC(C)=O)cc3)Oc3ccccc3NC2=O)cc1`, the IC50 is 2.27 µM.

Turning to `O=C1NC2CCCCN2C12CCN(CCCN1c3ccccc3CCc3ccc(Cl)cc31)CC2` (stereo not drawn), the IC50 is > 10 µM (inactive).

Turning to `CN1CCN(c2cc3c(nn2)Oc2ccccc2N3C)CC1`, the IC50 is > 10 µM (inactive).

Regarding `Cc1cccc(C)c1NC(=O)CN1CCN(CCCC(c2ccc(F)cc2)c2ccc(F)cc2)CC1`, the IC50 is > 10 µM (inactive).

`CCCCc1ccc2nc(NC(=O)OC)[nH]c2c1`: the IC50 was 0.053 µM.

Turning to `Cc1c2oc3c(C)ccc(C(=O)N[C@@H]4C(=O)N[C@H](C(C)C)C(=O)N5CCC[C@H]5C(=O)N(C)CC(=O)N(C)[C@@H](C(C)C)C(=O)O[C@@H]4C)c3nc-2c(C(=O)N[C@@H]2C(=O)N[C@H](C(C)C)C(=O)N3CCC[C@H]3C(=O)N(C)CC(=O)N(C)[C@@H](C(C)C)C(=O)O[C@@H]2C)c(N)c1=O` (I: T[dV]P[Sar][NMeV] / II: T[dV]P[Sar][NMeV]; ester I:1-I:C, II:1-II:C; linker I:N-II:N via Actinocin(9to1)), the IC50 is 0.001 µM.

For `CC(C)(C)CC(C)(C)c1ccc(O)cc1`, the IC50 is > 10 µM (inactive).

Turning to `CC=CC1C(C(=O)OCc2c(F)c(F)c(COC)c(F)c2F)C1(C)C` (stereo not drawn), the IC50 is > 10 µM (inactive).

Turning to `C#C[C@]1(OC(C)=O)CC[C@H]2[C@@H]3CCC4=C/C(=N/O)CC[C@@H]4[C@H]3CC[C@@]21CC`, the IC50 is > 10 µM (inactive).

On to `COC(=O)c1nc(Cl)c(Cl)nc1N`, for which the IC50 was 0.865 µM.

As to `CCCCCCCC[N+](C)(C)CCCCCCCC`, the IC50 was 1.39 µM.

Regarding `C=CCN1CC[C@]23CCCC[C@H]2[C@H]1Cc1ccc(O)cc13`, the IC50 was > 10 µM (inactive).

Take `CCCCCCCCCCCCCCCCCCNC(=O)OC1CCN(C(=O)OC[C@H](COC(=O)N(Cc2cccc[n+]2CC)C(=O)c2ccccc2OC)OC)CC1`: the IC50 was 1.5 µM.

Turning to `Cc1nc2ccc(CN(C)c3ccc(C(=O)N[C@@H](CCC(=O)O)C(=O)O)s3)cc2c(=O)[nH]1`, the IC50 was 0.354 µM.

`CSc1ccc(/C=C2/C(C)=C(CC(=O)O)c3cc(F)ccc32)cc1`: the IC50 was > 10 µM (inactive).

For the compound `C/C(=C(/OCCOc1ccc(Cl)cc1)c1ccc(Cl)cc1Cl)n1ccnc1`, the IC50 is 5.84 µM (inactive).

Regarding `CCCCCCCCCCCC[N+](C)(C)Cc1ccccc1`, the IC50 was > 10 µM (inactive).

As for `COc1ccc(CCN2CCC(Nc3nc4ccccc4n3Cc3ccc(F)cc3)CC2)cc1`, the IC50 is > 10 µM (inactive).

Take `CCCCN(CCCC)CCC(O)c1cc2c(Cl)cc(Cl)cc2c2cc(C(F)(F)F)ccc12` (stereo not drawn): the IC50 is > 10 µM (inactive).

Regarding `O=C1C2CC=CCC2C(=O)N1SC(Cl)(Cl)Cl` (stereo not drawn), the IC50 is > 10 µM (inactive).

For `CCCCC(CC)COC(=O)C(C#N)=C(c1ccccc1)c1ccccc1` (stereo not drawn), the IC50 is > 10 µM (inactive).

With `C=CCCCCCCCCC(=O)OC`, the IC50 is > 10 µM (inactive).

Take `Cc1c(O)cc2c(c1C)O[C@](C)(CCC[C@H](C)CCC[C@H](C)CCCC(C)C)CC2`: the IC50 is > 10 µM (inactive).

`CC(C)Cn1cnc2c1c(=O)n(C)c(=O)n2C`: the IC50 is > 10 µM (inactive).

In the case of `CCc1oc2ccccc2c1C(=O)c1cc(I)c(O)c(I)c1`, the IC50 is 5.85 µM (inactive).

`O=C1C(=O)c2ccccc2C(O)=C1C1CCC(c2ccc(Cl)cc2)CC1` (stereo not drawn): the IC50 is 5.18 µM (inactive).

For `CCc1cccc(N(C)C(N)=Nc2cccc3ccccc23)c1`, the IC50 was > 10 µM (inactive).

For `COCC(C)N(C(=O)CCl)c1c(C)csc1C` (stereo not drawn), the IC50 is > 10 µM (inactive).

Turning to `Nc1cc(C(F)(F)F)ccc1S`, the IC50 is > 10 µM (inactive).

Take `Clc1ccc(CO/N=C(\Cn2ccnc2)c2ccc(Cl)cc2Cl)c(Cl)c1`: the IC50 is > 10 µM (inactive).

As to `CN(C)/N=N/c1nc[nH]c1C(N)=O`, the IC50 is 4.59 µM.

In the case of `COc1ccc(Cc2nccc3cc(OC)c(OC)cc23)cc1OC`, the IC50 was 7.8 µM (inactive).

The values above are taken from PubChem BioAssay AID1117337 (Cheminformatics & Chemogenomics Research Group (CCRG), …, 2015).
